Where two headings read alike, the source gives them in different places.
Assays:
MST1R (RON) = MST1R (RON) (Homo sapiens, UniProt Q04912); assay: Tyrosine kinase inhibition assay; type: biochemical; settings: for inhibition at 1 µM: single concentration 1.0 μM, read-out: percent inhibition; for IC50: read-out: IC50 of compound
Procedure: (§1) Tyrosine kinase inhibition assays were performed at ThermoFisher Life Technologies (Madison, WI, USA) using standard protocols (SelectScreen Biochemical Profiling Service, Thermo Fisher Scientific). ATP concentrations used were at the apparent Km. Test compounds were screened in 1% dimethylsulffoxide (DMSO) (final concentration) in the well. For 10-point titrations, 3-fold serial dilutions were conducted from the starting concentration of […]. All Peptide/Kinase Mixtures were diluted to a 2× working concentration in the appropriate Kinase Buffer. All ATP Solutions were diluted to a 4× working concentration in Kinase Buffer (50 mM HEPES pH 7.5, 0.01% BRIJ-35, 10 mM MgCl2, 1 mM EGTA). The apparent ATP Km was previously determined using a Z′-LYTE assay. The Development Reagent was diluted in Development Buffer.
(§2) The inhibition activities of compounds were determined in biochemical assays using single concentration (1.0 μM) measurements. The results were provided as percent inhibition values. […] 99 different tyrosine kinases were used.

TYRO3 (RSE) = target: T1, TYRO3 (RSE) (Homo sapiens, UniProt Q06418); assay: Tyrosine kinase inhibition assay; type: biochemical; settings: for inhibition at 1 µM: single concentration 1.0 μM, read-out: percent inhibition
T1 sequence (Q06418 41-890): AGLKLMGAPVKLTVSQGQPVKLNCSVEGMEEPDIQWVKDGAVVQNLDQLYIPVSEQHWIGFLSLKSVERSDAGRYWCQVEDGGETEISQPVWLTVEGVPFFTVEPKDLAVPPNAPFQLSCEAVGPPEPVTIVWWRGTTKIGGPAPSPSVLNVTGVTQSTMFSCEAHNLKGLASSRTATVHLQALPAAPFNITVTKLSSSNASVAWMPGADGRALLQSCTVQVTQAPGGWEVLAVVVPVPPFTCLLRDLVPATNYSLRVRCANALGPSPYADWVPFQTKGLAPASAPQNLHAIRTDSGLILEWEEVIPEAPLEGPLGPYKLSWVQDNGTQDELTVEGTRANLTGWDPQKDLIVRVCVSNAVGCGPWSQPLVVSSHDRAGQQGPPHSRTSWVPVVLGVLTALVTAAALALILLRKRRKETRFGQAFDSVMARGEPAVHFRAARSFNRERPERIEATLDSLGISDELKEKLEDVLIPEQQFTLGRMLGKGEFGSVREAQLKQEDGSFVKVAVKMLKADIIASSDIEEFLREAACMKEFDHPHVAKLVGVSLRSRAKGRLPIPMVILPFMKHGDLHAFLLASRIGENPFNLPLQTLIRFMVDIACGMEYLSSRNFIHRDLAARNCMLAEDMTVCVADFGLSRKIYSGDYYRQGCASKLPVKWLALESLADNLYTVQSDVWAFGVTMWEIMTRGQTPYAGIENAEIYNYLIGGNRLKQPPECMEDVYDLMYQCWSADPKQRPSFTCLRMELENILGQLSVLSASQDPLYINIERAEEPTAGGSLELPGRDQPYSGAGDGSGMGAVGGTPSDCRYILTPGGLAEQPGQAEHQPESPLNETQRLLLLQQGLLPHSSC
Procedure: as §1, §2

CSF1R (FMS) = CSF1R (FMS) (Homo sapiens, UniProt P07333); assay: Tyrosine kinase inhibition assay; type: biochemical; settings: for IC50: read-out: IC50 of compound; for inhibition at 1 µM: single concentration 1.0 μM, read-out: percent inhibition
Procedure: as §1, §2

FLT3 = target: T2, FLT3 (Homo sapiens, UniProt P36888); assay: Tyrosine kinase inhibition assay; type: biochemical; settings: for inhibition at 1 µM: single concentration 1.0 μM, read-out: percent inhibition; for IC50: read-out: IC50 of compound
T2 sequence (P36888 27-993): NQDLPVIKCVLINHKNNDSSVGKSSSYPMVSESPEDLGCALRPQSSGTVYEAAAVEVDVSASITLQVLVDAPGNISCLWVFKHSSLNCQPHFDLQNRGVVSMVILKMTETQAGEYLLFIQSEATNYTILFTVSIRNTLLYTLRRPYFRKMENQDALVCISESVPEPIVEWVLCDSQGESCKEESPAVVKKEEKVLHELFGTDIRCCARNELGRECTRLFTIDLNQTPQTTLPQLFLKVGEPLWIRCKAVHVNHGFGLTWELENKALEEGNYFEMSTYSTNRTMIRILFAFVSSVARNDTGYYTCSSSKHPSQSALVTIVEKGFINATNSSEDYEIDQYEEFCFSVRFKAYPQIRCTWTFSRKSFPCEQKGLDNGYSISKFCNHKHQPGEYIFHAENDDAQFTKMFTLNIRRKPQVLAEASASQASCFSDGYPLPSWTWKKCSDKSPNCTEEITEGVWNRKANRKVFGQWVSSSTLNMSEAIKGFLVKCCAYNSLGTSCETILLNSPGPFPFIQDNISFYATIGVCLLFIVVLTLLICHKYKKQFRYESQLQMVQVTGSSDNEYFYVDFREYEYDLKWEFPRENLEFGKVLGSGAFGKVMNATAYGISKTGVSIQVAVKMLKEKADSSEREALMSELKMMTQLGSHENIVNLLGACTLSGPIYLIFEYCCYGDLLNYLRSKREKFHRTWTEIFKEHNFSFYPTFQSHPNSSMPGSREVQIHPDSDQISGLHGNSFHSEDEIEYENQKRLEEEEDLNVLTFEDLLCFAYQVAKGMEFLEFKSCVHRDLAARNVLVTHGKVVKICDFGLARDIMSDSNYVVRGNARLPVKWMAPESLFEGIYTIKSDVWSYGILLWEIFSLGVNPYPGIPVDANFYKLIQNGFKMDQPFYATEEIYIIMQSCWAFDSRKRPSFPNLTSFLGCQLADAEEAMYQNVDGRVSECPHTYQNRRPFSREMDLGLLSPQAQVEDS
Procedure: as §1, §2

TEK (Tie2) = TEK (Tie2) (Homo sapiens, UniProt Q02763); assay: Tyrosine kinase inhibition assay; type: biochemical; settings: for inhibition at 1 µM: single concentration 1.0 μM, read-out: percent inhibition; for IC50: read-out: IC50 of compound
Procedure: as §1, §2

MDA-MB-453 cells = assay: In vitro cytotoxicity assay (MTT, 72 h); type: cell-based; settings: Homo sapiens, growth inhibition
Procedure: (§3) Six different cell lines were used, including human breast cancer cell lines MDA-MB-231 (6×10^3) and MDA-MB-453 (2.4×10^4), human colorectal cell line SW48 (2.4×10^4), human breast epithelial cell line M10 (6×10^3), human cancer cell line A549 (1.4×10^3), and murine colorectal carcinoma tumors CT26 (6×10^3), which were seeded in a 96-well plate. […] After 72 h, MTT assay (Cayman™) was used to determine the cellular viability.

A549 cells = assay: In vitro cytotoxicity assay (MTT, 72 h); type: cell-based; settings: Homo sapiens, growth inhibition
Procedure: as §3

SW48 cells = assay: In vitro cytotoxicity assay (MTT, 72 h); type: cell-based; settings: Homo sapiens, growth inhibition
Procedure: as §3

MDA-MB-231 cells = assay: In vitro cytotoxicity assay (MTT, 72 h); type: cell-based; settings: Homo sapiens, growth inhibition
Procedure: as §3

M10 cells = assay: In vitro cytotoxicity assay (MTT, 72 h); type: cell-based; settings: growth inhibition, human normal cell line
Procedure: as §3

[1] = TYRO3 (RSE), read-out: IC50 of compound

CSF1R (FMS), sequence (P07333 20-972): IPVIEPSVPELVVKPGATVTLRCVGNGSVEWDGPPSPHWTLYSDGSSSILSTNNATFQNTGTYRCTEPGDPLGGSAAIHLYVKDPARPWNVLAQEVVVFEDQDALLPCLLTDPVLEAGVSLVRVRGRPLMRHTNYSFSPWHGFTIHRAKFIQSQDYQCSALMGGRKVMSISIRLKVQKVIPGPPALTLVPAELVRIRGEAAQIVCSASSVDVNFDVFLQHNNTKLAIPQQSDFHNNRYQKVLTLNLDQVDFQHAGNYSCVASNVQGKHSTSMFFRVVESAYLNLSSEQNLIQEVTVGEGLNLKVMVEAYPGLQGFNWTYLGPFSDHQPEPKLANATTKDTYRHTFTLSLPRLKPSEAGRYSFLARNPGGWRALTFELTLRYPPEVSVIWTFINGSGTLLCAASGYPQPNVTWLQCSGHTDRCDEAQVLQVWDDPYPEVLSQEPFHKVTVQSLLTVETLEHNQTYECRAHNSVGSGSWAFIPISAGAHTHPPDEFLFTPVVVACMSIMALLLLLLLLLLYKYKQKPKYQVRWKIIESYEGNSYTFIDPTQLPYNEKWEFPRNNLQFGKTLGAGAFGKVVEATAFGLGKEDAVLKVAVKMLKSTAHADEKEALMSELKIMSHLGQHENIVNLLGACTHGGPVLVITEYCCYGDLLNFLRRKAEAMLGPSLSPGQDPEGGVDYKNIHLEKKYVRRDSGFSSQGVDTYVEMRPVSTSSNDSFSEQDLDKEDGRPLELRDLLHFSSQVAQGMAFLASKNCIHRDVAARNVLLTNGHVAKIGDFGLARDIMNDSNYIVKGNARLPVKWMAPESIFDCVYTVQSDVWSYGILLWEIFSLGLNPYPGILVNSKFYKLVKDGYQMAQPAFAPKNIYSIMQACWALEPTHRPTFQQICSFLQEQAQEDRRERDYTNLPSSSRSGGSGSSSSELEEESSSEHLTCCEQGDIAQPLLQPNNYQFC
MST1R (RON), sequence (Q04912 25-1400): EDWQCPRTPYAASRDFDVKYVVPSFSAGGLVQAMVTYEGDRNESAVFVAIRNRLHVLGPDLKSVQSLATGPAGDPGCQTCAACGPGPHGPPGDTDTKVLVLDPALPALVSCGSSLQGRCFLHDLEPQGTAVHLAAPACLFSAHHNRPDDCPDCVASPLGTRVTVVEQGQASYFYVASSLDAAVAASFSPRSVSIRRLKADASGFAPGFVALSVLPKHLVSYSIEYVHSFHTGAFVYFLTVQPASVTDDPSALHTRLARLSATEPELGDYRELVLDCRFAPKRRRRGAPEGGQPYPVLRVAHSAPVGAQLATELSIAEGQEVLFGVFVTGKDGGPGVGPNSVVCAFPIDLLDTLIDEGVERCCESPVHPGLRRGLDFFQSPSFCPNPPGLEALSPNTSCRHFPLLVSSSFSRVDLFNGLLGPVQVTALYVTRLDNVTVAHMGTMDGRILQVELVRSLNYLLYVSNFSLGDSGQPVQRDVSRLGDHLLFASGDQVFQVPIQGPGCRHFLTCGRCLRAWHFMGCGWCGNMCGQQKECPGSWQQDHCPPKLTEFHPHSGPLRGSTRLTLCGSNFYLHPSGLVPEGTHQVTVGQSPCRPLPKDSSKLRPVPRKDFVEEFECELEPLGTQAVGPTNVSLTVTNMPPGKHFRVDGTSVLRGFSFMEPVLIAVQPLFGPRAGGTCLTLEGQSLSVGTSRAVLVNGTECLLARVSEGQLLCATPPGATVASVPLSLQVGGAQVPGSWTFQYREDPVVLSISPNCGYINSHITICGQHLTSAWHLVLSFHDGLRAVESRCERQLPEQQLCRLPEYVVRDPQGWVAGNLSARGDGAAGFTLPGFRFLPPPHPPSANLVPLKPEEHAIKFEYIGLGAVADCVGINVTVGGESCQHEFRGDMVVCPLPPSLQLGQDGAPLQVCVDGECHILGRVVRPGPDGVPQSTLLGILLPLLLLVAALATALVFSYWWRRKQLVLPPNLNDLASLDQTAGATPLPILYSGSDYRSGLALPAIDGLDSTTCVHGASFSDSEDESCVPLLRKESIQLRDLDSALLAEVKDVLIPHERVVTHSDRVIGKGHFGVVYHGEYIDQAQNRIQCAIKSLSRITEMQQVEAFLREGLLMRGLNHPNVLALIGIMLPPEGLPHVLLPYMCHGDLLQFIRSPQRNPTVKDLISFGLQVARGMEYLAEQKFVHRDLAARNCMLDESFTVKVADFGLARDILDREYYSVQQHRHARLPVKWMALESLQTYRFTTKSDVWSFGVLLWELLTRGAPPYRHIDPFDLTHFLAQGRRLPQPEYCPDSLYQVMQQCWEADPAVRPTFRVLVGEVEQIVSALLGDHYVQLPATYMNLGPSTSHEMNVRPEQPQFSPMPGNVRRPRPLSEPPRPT
TEK (Tie2), sequence (Q02763 23-1124): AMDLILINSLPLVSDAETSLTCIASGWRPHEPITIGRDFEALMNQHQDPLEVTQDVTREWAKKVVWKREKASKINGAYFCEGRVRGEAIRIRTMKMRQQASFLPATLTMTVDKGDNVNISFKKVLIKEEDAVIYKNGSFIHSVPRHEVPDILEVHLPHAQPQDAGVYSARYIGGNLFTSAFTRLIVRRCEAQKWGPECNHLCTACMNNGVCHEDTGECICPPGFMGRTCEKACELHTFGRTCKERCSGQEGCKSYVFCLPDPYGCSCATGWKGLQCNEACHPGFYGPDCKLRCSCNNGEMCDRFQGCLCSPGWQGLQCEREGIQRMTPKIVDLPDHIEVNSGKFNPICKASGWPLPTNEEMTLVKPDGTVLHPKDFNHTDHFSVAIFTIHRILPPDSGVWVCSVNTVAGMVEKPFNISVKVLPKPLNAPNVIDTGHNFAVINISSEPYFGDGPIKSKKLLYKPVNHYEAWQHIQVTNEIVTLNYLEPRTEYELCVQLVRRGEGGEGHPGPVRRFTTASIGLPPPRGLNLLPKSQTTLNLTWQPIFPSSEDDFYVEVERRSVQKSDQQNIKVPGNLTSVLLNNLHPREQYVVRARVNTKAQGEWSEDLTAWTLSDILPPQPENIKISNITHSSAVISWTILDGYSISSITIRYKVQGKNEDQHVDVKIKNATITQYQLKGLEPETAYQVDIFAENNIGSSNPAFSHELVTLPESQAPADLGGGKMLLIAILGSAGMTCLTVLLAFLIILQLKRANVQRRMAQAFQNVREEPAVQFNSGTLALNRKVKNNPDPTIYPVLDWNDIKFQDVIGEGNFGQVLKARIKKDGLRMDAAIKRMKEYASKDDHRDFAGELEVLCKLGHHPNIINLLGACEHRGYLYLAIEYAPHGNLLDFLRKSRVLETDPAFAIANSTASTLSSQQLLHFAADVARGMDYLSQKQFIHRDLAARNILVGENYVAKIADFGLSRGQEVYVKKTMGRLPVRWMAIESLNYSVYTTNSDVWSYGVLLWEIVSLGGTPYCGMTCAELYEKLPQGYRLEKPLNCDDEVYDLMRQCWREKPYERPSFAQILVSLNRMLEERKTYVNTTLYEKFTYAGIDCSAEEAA

Row | SMILES | inhibition at 1 µM (MST1R (RON)) [%] | IC50 (TYRO3 (RSE)) [µM] | IC50 (CSF1R (FMS)) [µM] | inhibition at 1 µM (CSF1R (FMS)) [%] | inhibition at 1 µM (FLT3) [%] | inhibition at 1 µM (TEK (Tie2)) [%] | IC50 (MDA-MB-453 cells) [µM] | IC50 (A549 cells) [µM] | IC50 (SW48 cells) [µM] | IC50 (MDA-MB-231 cells) [µM] | IC50 (M10 cells) [µM] | inhibition at 1 µM (TYRO3 (RSE); TYRO3 (RSE)) [%] | IC50 (MST1R (RON)) [µM] | IC50 (TYRO3 (RSE); [1]) [µM] | IC50 (FLT3) [µM] | IC50 (TEK (Tie2)) [µM]
1 | COc1cc2nccc(Oc3ccc(NC(=O)C4(C(=O)Nc5ccc(F)cc5)CC4)cc3)c2cc1OC [Cabozantinib, reference compound] | 95 | 0.0091 | 0.0119 | 88 | 90 | 89 | 20.5 ± 4.48 | 4.05 ± 0.46 | 4.33 ± 0.33 | 8.72 ± 1.08 | 9.57 ± 1.62 |  |  |  |  | 
2 | COc1cc2nccc(Oc3ccc(NC(=O)C4(NC(=O)c5ccc(F)cc5)CC4)cc3F)c2cc1OC [Cbo-02, N-(1-((4-((6,7-diMethoxyquinolin-4-yl)oxy)-3-fluorophenyl)carbamoyl)cyclopropyl)-4-fluorobenzamide] | 96 |  |  | 83 | 56 | 77 | 5.31 ± 0.57 | 1.51 ± 0.057 | 0.82 ± 0.011 | 5.64 ± 0.36 | 3.92 ± 0.25 | 58 |  |  |  | 
3 | COc1cc2nccc(Oc3ccc(NC(=O)C4(NC(=O)c5ccc(F)cc5)CC4)cc3F)c2cc1Oc1ccc(N)cc1F [Cbo-10] | 100 |  |  | 96 | 70 | 85 | 4.67 ± 0.28 | 1.18 ± 0.036 | 0.79 ± 0.001 | 2.45 ± 0.14 | 0.911 ± 0.025 | 87 |  |  |  | 
4 | COc1cc2nccc(Oc3ccc(NC(=O)C4(NC(=O)c5ccc(F)cc5)CC4)cc3F)c2cc1Oc1c(F)cc(N)cc1F [Cbo-14] | 100 |  |  | 93 | 81 | 90 | 2.68 ± 0.75 | 1.23 ± 0.034 | 0.79 ± 0.001 | 14.4 ± 5.3 | 0.92 ± 0.008 | 89 |  |  |  | 
5 | COc1cc2nccc(Oc3ccc(NC(=O)C4(C(=O)Nc5ccc(F)cc5)CC4)cc3F)c2cc1Oc1ccc(N)cc1F [Cbo-23] | 101 |  | 0.0402 | 99 | 99 | 95 | 1.71 ± 0.14 | 1.69 ± 0.13 | 0.79 ± 0.005 | 1.95 ± 1.95 | 1.01 ± 0.02 | 100 | 0.0515 | 0.0125 | 0.0248 | 0.0631
6 | CNC(=O)c1cc2c(Oc3ccc(NC(=O)C4(C(=O)Nc5ccc(F)cc5)CC4)cc3)ccnc2cc1OC [Zanzalintinib, reference compound] |  |  | 0.0163 |  |  |  | 22.6 ± 1.05 | 7.58 ± 0.18 | 6.86 ± 0.26 | 6.17 ± 0.15 | 3.28 ± 1.84 |  | 0.135 | 0.00949 | 0.00543 | 0.15
